Measurements published in US12653865B2, “Dual-agonist compound for both GLP-1 and GIP receptors and application thereof” (Jiangsu Hengrui Pharmaceuticals Co., Ltd., priority 2020, dated 2026).
*1 amine or outer side, *2 acyl side, *3 side chain or, on linkers, in order; H or OH if unused. Where a SMILES comes first, the peptide text is derived from it. Side-chain parts run from the residue outwards. [ ]: non-standard residue; d: D form. The star is where a group is joined. C20 diacid = O=C(O)CCCCCCCCCCCCCCCCCCC(=O)*; γGlu = O=C(O)[C@H](CCC(=O)[*:2])N[*:1]; AEEA = NCCOCCOCC(=O)O; Aib = CC(C)(N)C(=O)O

Tests used:
diet-induced obese mice = assay: Body weight and fat mass in diet-induced obese mice; type: in vivo, C57BL/6 mice; settings: induced obese mice, 10 nmol/kg sc
Method: High-fat food-induced obese male C57BL/6 mice (weighing 35-55 g, aged 10-12 weeks, purchased from Shanghai Jiesijie Laboratory Animal Co., Ltd.) were tested. […] According to the experimental design, the body weight of each mouse was measured and recorded on day 0, day 3, day 6 and so on to day 27, the average body weight of each group of mice was calculated, and weight change curves were plotted by taking the body weight on the first day as the standard. At the end, the fat and other visceral organs of each part of the mice were taken out and weighed, and the viscera/brain ratio for fat in each part of each mouse was calculated. The effect of the drug on the fat was determined by comparing the change in the organ/brain ratio for fat of different parts of each group of mice.

[1] = Stability in human plasma (LC-MS); type: in vitro ADME; settings: 0 min (standard 100%)
Method: 5 μL of each of samples at concentrations of 20 ng/mL, 50 ng/mL, 100 ng/mL, 200 ng/mL, 500 ng/mL, 1000 ng/mL, 2000 ng/mL, 5000 ng/mL and 10000 ng/mL was added to 45 μL of human plasma. The content of the compounds in the samples was determined by the LC-MS method and a standard curve was formed. 5 μL of a 1 mg/mL polypeptide solution was added to 45 μL of human plasma. […] With the content at 0 min as the standard (100%), the relative content of the retained compounds in the samples at other time points was calculated.

normal mice = assay: Blood glucose in normal mice after single subcutaneous injection and intraperitoneal glucose; type: in vivo, C57BL/6 mice; settings: 10 nmol/kg sc; for Blood glucose: glucose ip 18 h later
Method: 18 h later, a glucose solution at a concentration of 0.2 g/mL was intraperitoneally injected. Blood glucose values were measured by collecting blood from the tail of mice at time points of 0 min, 15 min, 30 min, 60 min, and 120 min according to the experimental design. The specific procedures were as follows: the mouse was physically immobilized with the tail exposed, and a little was cut off the tail, then the tail was squeezed to bleed, and blood glucose was determined using a Roche active glucometer after the 1 st drop of blood was discarded. The area under the blood glucose curve (AUC) was calculated from the results of all points.

CC[C@H](C)[C@H](NC(=O)[C@H](CCCCN)NC(=O)[C@H](CC(=O)O)NC(=O)[C@H](CCCCNC(=O)COCCOCCNC(=O)COCCOCCNC(=O)CC[C@H](NC(=O)CCCCCCCCCCCCCCCCCCC(=O)O)C(=O)O)NC(=O)[C@H](Cc1ccc(O)cc1)NC(=O)[C@@H](NC(=O)[C@H](CO)NC(=O)[C@H](Cc1ccc(O)cc1)NC(=O)[C@H](CC(=O)O)NC(=O)[C@H](CO)NC(=O)[C@@H](NC(=O)[C@H](Cc1ccccc1)NC(=O)[C@@H](NC(=O)CNC(=O)[C@H](CCC(=O)O)NC(=O)C(C)(C)NC(=O)[C@@H](N)Cc1ccc(O)cc1)[C@@H](C)O)[C@@H](C)O)[C@@H](C)CC)C(=O)N[C@@H](C)C(=O)N[C@@H](C)C(=O)N[C@@H](CCC(N)=O)C(=O)N[C@@H](CCC(=O)O)C(=O)N[C@@H](Cc1ccccc1)C(=O)N[C@H](C(=O)N[C@@H](CC(N)=O)C(=O)N[C@@H](Cc1c[nH]c2ccccc12)C(=O)N[C@@H](CC(C)C)C(=O)N[C@@H](CC(C)C)C(=O)N[C@@H](C)C(=O)NCC(=O)NCC(=O)N1CCC[C@H]1C(=O)N[C@@H](CO)C(=O)N[C@@H](CO)C(=O)NCC(=O)N[C@@H](C)C(=O)N1CCC[C@H]1C(=O)N1CCC[C@H]1C(=O)N1CCC[C@H]1C(=O)N[C@@H](CO)C(N)=O)C(C)C [Compound 7#] (H-Y[Aib]EGTFTSDYSIYK([AEEA-AEEA-γGlu-C20 diacid])DKIAAQEFVNWLLAGGPSSGAPPPS-NH2)
Changes in body weight (diet-induced obese mice; Day 1): 0%
Changes in body weight (diet-induced obese mice; Day 4): −11.0%
Changes in body weight (diet-induced obese mice; Day 7): −17.6%
Changes in body weight (diet-induced obese mice; Day 10): −22.6%
Changes in body weight (diet-induced obese mice; Day 13): −22.3%
Changes in body weight (diet-induced obese mice; Day 16): −22.7%
Changes in body weight (diet-induced obese mice; Day 19): −25.9%
Changes in body weight (diet-induced obese mice; Day 22): −23.9%
Changes in body weight (diet-induced obese mice; Day 25): −23.9%
Changes in body weight (diet-induced obese mice; Day 28): −25.5%
relative content of compounds retained in plasma [1]: 100.00%
reduction of area under the blood glucose curve compared to placebo (normal mice): more than 60%
Blood glucose (normal mice; 0 min): 4.4 ± 0.8 mmol/L
Blood glucose (normal mice; 15 min): 6.7 ± 0.8 mmol/L
Blood glucose (normal mice; 30 min): 6.2 ± 1.3 mmol/L
Blood glucose (normal mice; 60 min): 5.7 ± 1.2 mmol/L
Blood glucose (normal mice; 120 min): 3.8 ± 1.1 mmol/L
